From US20180256668A1, “PHARMACEUTICAL COMPOSITION FOR TREATMENT OF OR REMISSION IN ELDERLY OR TERMINAL CANCER PATIENT” (DELTA-FLY PHARMA, INC., priority 2014, published 2018) come the findings set out here.

The structures appear in SMILES notation.

In assay [1] the test system is post-surgery recurrence of non-small cell lung cancer. Put plainly: Case of a patient with post-surgery recurrence of non-small cell lung cancer (Example 3). As to conditions: Bestatin 10 mg/day alone every day from Jan-14. The assay is classed as in vivo, human. The procedure:
The non-small cell lung cancer patient received lung right upper lobectomy, then immunotherapy, but enlargement of the right cervical lymph node was confirmed (September 2012 (Sep-12)). Subsequently, the elevation of CEA levels in peripheral blood was confirmed.
Starting in January 2014 (Jan-14), Bestatin (10 mg/day) was administered alone every day.

Assay [2] deals with A549 human lung carcinoma. Put plainly: Antitumor effect of Bestatin and gefitinib in A549 cancer-bearing mice (Example 15). Type of assay: in vivo, BALB/c nu/nu mice. The conditions noted are these: po, qd, 6 days/week x 3 weeks. The protocol: • [1] Production of Cancer-Bearing Mouse
A549 human lung carcinoma suspension (5×10^6 cells/100 μL PBS) was subcutaneously inoculated to BALB/c nu/nu mice (female). After cells were transplanted, mice with a tumor volume reaching about 117 mm^3 (on day 15 after the cell transplantation) were used for the following in vivo experiments, • [2] Evaluation of Antitumor Effects Attained by Combination of Bestatin and Gefitinib
Bestatin and gefitinib were respectively administered by the following doses, administration route and schedule to the above A549 cancer-bearing mice.
The antitumor effect was examined based on changes in tumor volume and changes in body weight.
The tumor volume was calculated by the following formula.
Tumor volume (mm^3)=(long side of tumor)×(short side of tumor)^2×0.5
Tumor growth inhibition (TGI) was also calculated from the tumor volume by the following formula.

The subject of assay [3] is post-surgery multiple lung metastases of thyroid gland cancer. The experiment in a line: Case of a patient with post-surgery multiple lung metastases of thyroid gland cancer (Example 2). The assay is classed as in vivo, human. The procedure: Multiple lung metastases were confirmed in a thyroid gland cancer patient and the platelet count and the neutrophil count in peripheral blood both increased. In December 2013 (Dec-13), the […] to neutrophil count ratio (NLR) in peripheral blood was more than 5, indicating poor prognosis.
Starting in March 2014 (Mar-14), Bestatin (10 mg/day) was administered alone every day.

Assay [4] deals with post-surgery liver metastasis of colorectal cancer. The experiment in a line: Case of a terminal colorectal cancer patient with post-surgery liver metastasis (Example 1). Type of assay: in vivo, human. The protocol: Post-surgery liver metastasis was confirmed in the terminal colorectal cancer patient.
Starting in March 2014 (Mar-14), Bestatin […]) was administered alone every day.

[5] abbreviates: Bestatin 10 mg/day alone every day from Mar-14.
[6] abbreviates: Bestatin 10 mg/day alone every day, May-14, two months after start.

Consider `CC(C)C[C@H](NC(=O)[C@@H](O)[C@H](N)Cc1ccccc1)C(=O)O` [Bestatin, (2S)-2-[(2S,3R)-3-amino-2-hydroxy-4-phenylbutanoylamino]-4-methylpentanoic acid], for which, in assay [1], the “CEA level in peripheral blood” value is “drop”. Besides, the “TGI (%) On day 40” value in assay [2] (G3: Bestatin 30 mg/kg alone) was determined as 39%. In assay [3] (2014 Jul. 15 (After administration), Bestatin 10 mg/day alone, before administration 8%), the “Lymphocyte in peripheral blood” value is on record as 22%. For the same compound, the “Neutrophil in peripheral blood” value in assay [3] (2014 Jul. 15 (After administration), Bestatin 10 mg/day alone, before administration 83%) was found to be 55%. For the same compound, the “Leukocyte in peripheral blood” value in assay [3] (2014 Jul. 15 (After administration), Bestatin 10 mg/day alone, before administration (2014 Jan. 10) 9500) was found to be 4900. Moreover, in assay [3] (setting [5]), the “neutrophil count in peripheral blood” value was “drops” and the “platelet count in peripheral blood” value was “drops”. Also, in assay [4] (setting [5]), the “platelet count in peripheral blood” value is on record as “started decreasing”. Besides, in assay [4] (setting [6]), the “tumor marker CA19-9 level in peripheral blood” value is reported as “started decreasing” and the “tumor marker CEA level in peripheral blood” value is reported as “started decreasing”. In assay [4] (administration stopped Jul-14), the “CEA level after Bestatin administration was stopped” value is “quickly elevated again” and the “platelet count in peripheral blood after Bestatin administration was stopped” value is “quickly elevated again”.
As for `COc1cc2ncnc(Nc3ccc(F)c(Cl)c3)c2cc1OCCCN1CCOCC1` [gefitinib], the “TGI (%) On day 40” value in assay [2] (G2: gefitinib 10 mg/kg alone) is given as 31%.
